Data published in patent publication EP2573108A1, “Methods for identifying compounds capable of inhibiting degradation of PKM zeta” (SYGNIS Bioscience GmbH & Co KG, priority 2011, dated 2013).
Where two headings read alike, the source gives them in different places. Where a SMILES comes first, the peptide text is derived from it. The star is where a group is joined. Cbz = O=C(OCc1ccccc1)*

How the values were obtained:
PKM zeta [1] = assay: PKM zeta protein stability after translation block with cycloheximide (Western blot), SHSY-5Y cells; assay type: cell-based
Procedure: Western blotting. […] Lysates were frozen in liquid nitrogen and stored afterwards at -20°C. After syringing the lysate 5x, lysate was spun down at 13000 rpm at 4 °C for 10 min and the protein concentration of the supernate was determined (BCA-Test, Pierce). 1/5 volume of 5x sample-buffer (with β-Mercaptoethanol) was added and samples were denatured at 95 °C for 5 min. 50 µg of protein was run on a SDS-PAGE and proteins were transferred to nitrocellulose membranes using an iBlot™ Dry Blotting System (Invitrogen, Karlsruhe, Germany). […] For quantification of scanned autoradiographs Windows ImageJ (NIH, Bethesda, MD,USA) was used.

PKM zeta [2] = assay: PKM zeta protein stability after translation block with cycloheximide (Western blot), COS cells; assay type: cell-based; settings: up to 48 h
Procedure: Electroporation of COS1 cells. COS1 cells were cultured in Dulbecco's modified eagle medium (DMEM) high glucose supplemented with 10% fetal calf serum (FCS). Cells were transfected with appropriate plasmids as indicated in the result section. For electroporation, COS-1 cells were harvested and resuspended in electroporation (EP)-buffer (50 mM K2HPO4, 20 mM CH3COOK, 20 mM KOH, pH 7.4) at a densitiy of 3.5x10^6 cells per transfection. After addition of 25 mM MgSO4, cells were mixed with 10 µg of plasmid-DNA (ratio of pulled down plasmid to co-expressed plasmid was 1:4; pure co-expression of two plasmids was performed in a ratio of 1:2) and transferred to an electroporation cuvette. Electroporation was performed in a Biorad Gene Pulsar II electroporator at 500 µF capacitance and 230 V, and cells were transferred into DMEM supplemented with 10% FCS and plated immediately. 48 h after transfection, cells were harvested for Co-IP. To perform western blot analysis, cells were stimulated 24 h after transfection for the indicated time points with cycloheximide and MG-132, respectively.
Western blotting. […] After syringing the lysate 5x, lysate was spun down at 13000 rpm at 4 °C for 10 min and the protein concentration of the supernate was determined (BCA-Test, Pierce). […] For quantification of scanned autoradiographs Windows ImageJ (NIH, Bethesda, MD,USA) was used.

PKM zeta [3] = settings: PKM zeta expressed in COS cells, Fig. 4e
Procedure: (§1) Starting from aa 882, increasing 20aa stretches of KIBRA were deleted and constructs were tested for interaction with FLAG-tagged PKM zeta. […] PKM zeta-flag expression constructs were co-transfected with EGFP-fusion constructs containing the 956-975 PKM zeta binding motif. Amino acids from position 964 to 974 were mutated to Alanin. […] Increasing concentrations of the peptide were added to COS-lysates co-expressing KIBRA and FLAG- PKM zeta before pull-down with anti-FLAG beads. […] The C-terminal serine residues that can be phosphorylated by PKM zeta in vitro were mutated to alanine or glutamate. […] Neurons were infected with a KIBRA-EGFP fusion constructs.
(§2) Co-immunoprecipitation. 2d after electroporation, cells were washed twice with ice-cold 1xPBS, and lyesd (50 mM Tris/HCl pH 7.4, 150 mM NaCl, 0.5% NP40, 20 mM NaF, 2 mM EDTA, 2 mM EGTA, 2 mM orthovanadate, protease inhibitor cocktail) at 4°C. Lysate was incubated with anti-flag beads (Sigma) at 4 °C for 2h, 5µl of peptide solution was added as indicated. Protein was released by 1x SDS loading buffer (without reducing reagents) (95 °C for 5min).
(§3) In more detail, 2d after electroporation, COS cells were washed twice with ice-cold IxPBS, and protein extraction was carried out by lysis of cells with lysis-buffer (50 mM Tris/HCl pH 7.4, 150 mM NaCl, 0.5% NP40, 20 mM NaF, 2 mM EDTA, 2 mM EGTA, 2 mM orthovanadate, protease inhibitor cocktail) at 4 °C. After incubation for 20 min at 4°C, the lysate was spun down at 13500 rpm at 4 °C for 10 min. One part of the supernatant was kept for direct Western analysis (lysate).

KIBRA- PKM zeta complex = settings: for displacement of KIBRA from a pre-formed complex with PKM zeta: COS lysates, Fig. 4f
Procedure: as §1, §2, §3

binding to PKM zeta (PKM zeta [3]; listed as aa 948-978)	binding to PKM zeta (PKM zeta [3]; listed as synthetic biotin-labeled peptide)	IC50 (KIBRA- PKM zeta complex; increasing concentrations of peptide added to COS-lysates co-expressing KIBRA and FLAG-PKM zeta before pull-down with anti-FLAG beads, estimated) [nM]	Molecule	PKM zeta levels after CHX (PKM zeta [1])	PKM zeta levels after CHX (PKM zeta [2])	displacement of KIBRA from a pre-formed complex with PKM zeta (KIBRA- PKM zeta complex)	displacement of KIBRA from a pre-formed complex with PKM zeta (KIBRA- PKM zeta complex; listed as aa 948-978)
			CC(C)C[C@@H](C=O)NC(=O)[C@H](CC(C)C)NC(=O)[C@H](CC(C)C)NC(=O)OCc1ccccc1 [MG132] (Cbz-Leu-Leu-Leu-aldehyde)	prevented the time-dependent decrease in kinase levels	prevented the time-dependent decrease in kinase levels		
sufficient for binding	able to bind PKM zeta	~60	DSSTLSKKPPFVRNSLERRSVRMKRPSSVKS [synthetic peptide 948-978]			able to disrupt a preformed KIBRA- PKM zeta complex	able to displace KIBRA from a pre-formed complex with PKM zeta in a concentration-dependent manner
